Experimental data reported in patent US20260306524A1, “Guanidinylated Amphiphilic Tobramycin Derivates and B-Lactam/B-Lactamase Inhibitor Combinations for Treatment of Pseudomonas Aeruginosa Infections” (University of Manitoba, priority 2023, published 2026).
Like-named read-outs stand apart in the source and are kept apart here.

How the values were obtained:
[1] = Cell viability (cytotoxicity) assay, HEK293; format: cell-based, human; details: human, hek293 cells
Procedure: (§1) As an initial screening of the toxicity, the cell viability of the tobramycin derivatives was assessed in human embryonic kidney (HEK) 293 cell lines. Polymyxin B was utilized as […] and by being a membrane permeabilizing amphiphile resembling the tobramycin derivatives.
(§2) The cytotoxicity assay was conducted as previously described (24, 30). HEK293 cells were cultured in flasks with Dulbecco's Modified Eagle's Medium (DMEM) supplemented with 10% fetal bovine serum. The cells were incubated at 5% CO2 in a humidified atmosphere at 37° C. 50 μL of media containing approximately 8000 cells were added to designated wells in a 96-well plate. The wells containing only media with no cells served as blanks. The plate was incubated for 24 h. A volume of 50 μL of doubled the final desired concentrations of the agent were subsequently added to the experimental and blank wells. After 48 h incubation, PrestoBlue reagent from Invitrogen (United States) was added to a final concentration of 10% (v/v) and plates were incubated for an additional 1 hour at 5% CO2. Fluorescence was measured with excitation and emission wavelengths of 560 and 590 nm, respectively, using the Molecular Devices (United States) SpectraMax M2 plate reader. Values from the blank wells were subtracted from the corresponding wells with cells. The cell viability relative to the controls with vehicle was calculated. The plots indicate the mean±standard deviation of two experiments with five samples each.

[2] = test system: HEK293 cells; assay: Cell viability (cytotoxicity) assay, HEK293; format: cell-based, human; details: for cell viability compared to 1: HEK293, up to 600 μM; for cell viability compared to non-guanidinylated counterpart: HEK293, higher concentrations
Procedure: as §1, §2

[3] = test system: P. aeruginosa PAO1; assay: Checkerboard synergy with β-lactam antibiotics, PAO1; format: cell-based, Pseudomonas aeruginosa; details: for active concentration: equivalent to 6 μM
Procedure: After establishing the MIC of the tobramycin derivatives, the ability of these adjuvants to synergize with BL antibiotics was investigated against P. aeruginosa PAO1. The checkerboard assays were conducted as previously described and in accordance with the CLSI guidelines (37). Synergy was defined by at least a 4-fold reduction in the MICs of both adjuvant and antibiotic. The panel of antibiotics are comprised of commonly used antipseudomonal agents and represent the different BL subclasses—cephalosporin (ceftazidime), monobactam (aztreonam), penicillin (piperacillin) and carbapenems (imipenem and meropenem) (12).
The checkerboard assay was conducted as previously described (61). The bacterial solution was prepared as described in the broth microdilution method. The antibiotic of interest was serially diluted two-fold along the x-axis, and the adjuvant is serially diluted two-fold along the y-axis in a 96-well plate. Equal volumes of bacterial solution were added to the designated wells. The first row and columns are used to verify the MIC of the antibiotic and adjuvant, respectively. The well containing only broth served as negative control, while the well containing the broth and bacterial solution served as positive control. The plate was then incubated at 37° C. for 18 hours. After incubation, Molecular Devices (United States) Emax Plus microplate reader was used to measure the OD at a wavelength of 590 nm. Synergy was determined by at least a 4-fold reduction of the MIC of both agents.

[4] = test system: PA 86052; assay: Time-kill kinetics assay, PA 86052; format: cell-based, Pseudomonas aeruginosa
Procedure: (§3) To elucidate the mechanistic killing of the triple combination studies, the time-kill kinetics assay was performed as previously described (32). […] 8 μg/mL of ceftazidime and 2 μg/mL avibactam were used to reflect the clinically used 4:1 ratio.
(§4) Time-kill curve analyses were performed as previously described (32). An inoculum of the culture was then diluted in 0.85% saline solution to attain 0.5 McFarland turbidity. The inoculum was further diluted in lysogeny broth (LB) containing different antibiotic and adjuvant concentrations. The culture tubes were incubated at 37° C., shaking at 250 rpm. At specific time intervals, an aliquot was taken from each tube, serially diluted in sterile phosphate-buffered saline (PBS) and plated on LB agar plates. The plates were incubated at 37° C. overnight and the bacterial colonies were counted the subsequent day. The bactericidal or bacteriostatic activity was determined based on the decrease in CFU over the designated time period. Bactericidal activity corresponded to ≥3 log reduction in CFU/mL, while bacteriostatic activity corresponded to <3 log reduction in CFU/mL.

[5] = test system: PA 107092; assay: Time-kill kinetics assay, PA 107092; format: cell-based, Pseudomonas aeruginosa
Procedure: as §3, §4

[6] = test system: β-lactamase harboring P. aeruginosa isolates; assay: MIC against β-lactamase harboring isolates; format: cell-based; details: Pseudomonas aeruginosa, 18 h
Source text: (§5) Since the main resistance mechanism against BL antibiotics is the hydrolysis by β-lactamase enzymes (46), it is imperative that the synergy evaluation is extended to P. aeruginosa strains containing these enzymes. Based on the results of the checkerboard assays against the MDR strains, the synergy of 5 and 8 with ceftazidime and aztreonam was further assessed against β-lactamase harboring P. aeruginosa isolates. These strains are characterized by their increased susceptibility to ceftazidime with the addition of avibactam. In addition, a triple combination therapy consisting of the tobramycin derivative, either BL antibiotic and avibactam was also investigated.
The broth microdilution assay was performed in accordance with standard protocols as previously described (61). An inoculum of the culture was diluted in 0.85% saline solution to attain 0.5 McFarland turbidity. The inoculum was further diluted in Mueller-Hinton broth (MHB) for inoculation to a final concentration of 5×10^5 colony forming units/mL (CFU/mL). The agents were serially diluted two-fold in CA-MHB in a 96-well plate. […] After incubation, Molecular Devices (United States) Emax Plus microplate reader was used to measure the optical density (OD) at a wavelength of 590 nm to confirm the turbidity. The minimum inhibitory concentration (MIC) was determined as the lowest concentration that inhibited visible bacterial growth.

[7] = test system: MDR clinical isolates of P. aeruginosa; assay: MIC against MDR clinical isolates; format: cell-based; details: Pseudomonas aeruginosa, 18 h; all MDR strains tested, alone
Procedure: The synergism of the guanidinylated amphiphilic tobramycin derivatives with ceftazidime, aztreonam and piperacillin against PAO1 prompted further investigation against MDR clinical isolates of P. aeruginosa. Prior to the checkerboard assays, the MICs of 5 and 8 were determined to be >128 μg/mL against all strains tested.
All antibiotics were purchased from commercial sources. Bacterial isolates were obtained from the American Type Culture Collection (ATCC), and from the Canadian National Intensive Care Unit (CAN-ICU) (59) and Canadian Ward (CANWARD) surveillance studies (60). CAN-ICU and CANWARD clinical isolates were collected from patients with presumed infectious diseases admitted in participating Canadian medical centers either to the intensive care unit or medical wards. Prior to microbiological testing, bacterial cultures were grown overnight in lysogeny broth (LB) at 37° C., shaking at 250 rpm.
The broth microdilution assay was performed in accordance with standard protocols as previously described (61). […] After incubation, Molecular Devices (United States) Emax Plus microplate reader was used to measure the optical density (OD) at a wavelength of 590 nm to confirm the turbidity. The minimum inhibitory concentration (MIC) was determined as the lowest concentration that inhibited visible bacterial growth.

[8] = test system: P. aeruginosa PAO1; assay: Potentiation of rifampicin, PAO1; format: cell-based, Pseudomonas aeruginosa
Source text: Another evidence of OM permeabilization is the ability of the guanidinylated amphiphilic tobramycin derivatives to synergize with membrane-impermeable antibiotics such as rifampicin. 5 and 8 potentiated rifampicin by 16- and 64-fold, respectively, against PAO1. Rifampicin has limited capacity in crossing the OM of Gram-negative bacteria, and is restricted to treating infections caused by Mycobacteria and Gram-positive cocci (48). Unlike the BL antibiotics that permeate the OM through a porin-mediated uptake, the large molecular weight and hydrophobicity of rifampicin make it unable to enter the narrow porins, and rely on slow passive diffusion to traverse the lipid bilayer (49). Therefore, the augmented potency of rifampicin against P. aeruginosa is linked to its increased intracellular concentration through OM destabilization.
(§6) The checkerboard assay was conducted as previously described (61). The bacterial solution was prepared as described in the broth microdilution method. The antibiotic of interest was serially diluted two-fold along the x-axis, and the adjuvant is serially diluted two-fold along the y-axis in a 96-well plate. Equal volumes of bacterial solution were added to the designated wells. […] After incubation, Molecular Devices (United States) Emax Plus microplate reader was used to measure the OD at a wavelength of 590 nm. […]

[9] = test system: β-lactamase harboring P. aeruginosa isolates; assay: Checkerboard dual and triple combinations, β-lactamase harboring isolates; format: cell-based, Pseudomonas aeruginosa; details: checkerboard assays
Source text: as §5
as §6, with “wells. The first row and columns are used to verify the MIC of the antibiotic and adjuvant, respectively.” for “wells.”

## NC[C@H]1O[C@H](O[C@H]2[C@H](OCc3ccc(-c4ccccc4)cc3)[C@@H](O[C@H]3O[C@H](CO)[C@@H](O)[C@H](N)[C@H]3O)[C@H](N)C[C@@H]2N)[C@H](N)C[C@@H]1O [Compound 7, 5-O-(4-Methylbiphenyl)-tobramycin]
[1]; HEK293, up to 600 μM
  viability at 48 h, 600 µM: 86 to 101%
[2]
  cell viability compared to 1: comparable to 1

## NCCCCCCCCOC1C(OC2OC(CN)C(O)CC2N)C(N)CC(N)C1OC1OC(CO)C(O)C(N)C1O (stereo not shown) [Compound 6, 5-O-(8-Aminooctyl)-tobramycin]
[2]; HEK293, 600 μM
  cell viability at 600 μM compared to 4: lower in comparison to 4
[3]; PAO1, 8 μg/mL of adjuvant
  fold potentiation of ceftazidime: 4 fold

## CC(C)(O/N=C(\C(=O)N[C@@H]1C(=O)N2C(C(=O)[O-])=C(C[n+]3ccccc3)CS[C@H]12)c1csc(N)n1)C(=O)O [ceftazidime, reference compound]
[4]; 8 μg/mL ceftazidime, 2 μg/mL avibactam
  antibacterial effect over 24 h: did not exhibit any antibacterial effect
[5]; 8 μg/mL ceftazidime
  antibacterial effect over 24 h, monotherapy: ineffective
[6]; all five β-lactamase harboring strains, read-out: MIC of ceftazidime monotherapy
  MIC: 64 to 128 µg/mL

## N=C(N)NC[C@H]1O[C@H](O[C@H]2[C@H](OCc3ccc(-c4ccccc4)cc3)[C@@H](O[C@H]3O[C@H](CO)[C@@H](O)[C@H](NC(=N)N)[C@H]3O)[C@H](NC(=N)N)C[C@@H]2NC(=N)N)[C@H](NC(=N)N)C[C@@H]1O [Compound 8, 5-O-(4-Methylbiphenyl)-guanidinotobramycin]
[7]
  MIC: > 128 µg/mL
[8]
  fold potentiation of rifampicin: 64 fold
[9]
  lowest concentration wherein synergy was observed: 8 µg/mL
[4]; 8 μg/mL of 8, ceftazidime 8 μg/mL, avibactam 2 μg/mL, within 8 hours
  log reduction in CFU/mL, triple combination: > 3 log
[4]; 8 with ceftazidime/avibactam
  time to bactericidal effect, triple combination: ≤ 8 h
[1]; HEK293, 600 μM
  viability at 48 h, 600 µM: 79.8%
[1]; HEK293, active concentration 8 μg/mL, read-out: non-cytotoxic concentration (600 μM, 848.04 μg/mL) as multiple of active concentration
  selectivity ratio: ~106
[2]; HEK293
  cytotoxicity up to approximately 106 times the active concentration: non-cytotoxic
[2]; HEK293, 600 μM
  cytotoxicity compared to PMB: reduced cytotoxicity than PMB
[2]
  cell viability compared to non-guanidinylated counterpart: slight decrease in the cell viability
[5]; 8 μg/mL of 8, ceftazidime 8 μg/mL, avibactam 2 μg/mL, at 4 hours
  log reduction in CFU/mL, triple combination: 3 log
[3]
  active concentration: ~ 8 μg/mL

## N=C(N)NC[C@H]1O[C@H](O[C@H]2[C@H](O)[C@@H](O[C@H]3O[C@H](CO)[C@@H](O)[C@H](NC(=N)N)[C@H]3O)[C@H](NC(=N)N)C[C@@H]2NC(=N)N)[C@H](NC(=N)N)C[C@@H]1O [Compound 2, guanidinylated tobramycin, reference compound]
[2]
  cell viability compared to non-guanidinylated counterpart: slight decrease in the cell viability

## CCCCCCCCOC1C(OC2OC(CNC(=N)N)C(O)CC2NC(=N)N)C(NC(=N)N)CC(NC(=N)N)C1OC1OC(CO)C(O)C(NC(=N)N)C1O (stereo not shown) [Compound 5, 5-O-(Octyl)-guanidinotobramycin]
[7]
  MIC: > 128 µg/mL
[8]
  fold potentiation of rifampicin: 16 fold
[1]; HEK293, 600 μM
  viability at 48 h, 600 µM: 63.8%
[2]; HEK293, 600 μM
  cytotoxicity compared to PMB: comparable toxicity
[3]
  active concentration: ~ 8 μg/mL

## CCCCCCCCOC1C(OC2OC(CN)C(O)CC2N)C(N)CC(N)C1OC1OC(CO)C(O)C(N)C1O (stereo not shown) [Compound 4, 5-O-(Octyl)-tobramycin]
[1]; HEK293, up to 600 μM
  viability at 48 h, 600 µM: 86 to 101%
[2]
  cell viability compared to 1: comparable to 1

## Polymyxin B [PMB, reference compound]
[2]; HEK293, 600 μM, 2880 min
  cell viability: 64.7%

## C[C@H]1[C@H](NC(=O)/C(=N\OC(C)(C)C(=O)O)c2csc(N)n2)C(=O)N1S(=O)(=O)O [aztreonam]
[6]; five β-lactamase harboring strains, read-out: MIC of aztreonam monotherapy
  MIC: 32 to 128 µg/mL

## CCCCCCCCCCCCOC1C(OC2OC(CN)C(O)CC2N)C(N)CC(N)C1OC1OC(CO)C(O)C(N)C1O (stereo not shown) [Compound 3]
[2]; HEK293, at 600 μM, relative to tobramycin
  cytotoxicity: highly toxic relative to tobramycin, causing cell death at 600 μM

## COc1cccc2c1C(=O)c1c(O)c3c(c(O)c1C2=O)C[C@@](O)(C(=O)CO)C[C@@H]3O[C@H]1C[C@H](N)[C@H](O)[C@H](C)O1 [Doxorubicin, reference compound]
[1]; HEK293, 125 μM
  viability at 48 h, 125 µM: 0%
